{
  "source": "patent US20100285959A1",
  "about": "“HERBICIDAL MIXTURES” (priority 2006, published 2010)",
  "key": {"common blackjack (BIDPI)": {"system": "common blackjack (BIDPI)", "assay": "Test 11 field trial, preemergence", "assay_type": "in vivo, Bidens pilosa", "set-up": "scale not given here", "settings": "alone or + atrazine 1500 or metolachlor 2500", "text": "(§1) Corn seeds (hybrid ‘Pioneer 3041’) were planted in mid spring season, 5 cm deep in a clay soil having 2.6% organic matter and a pH of 5.6. Plots were 8 m long by 1.5 m wide with rows spaced 80 cm apart. Seeds were spaced 15 cm apart within the rows. The field was managed using conventional tillage practices. […] Treatments consisted of Compound 2 or\n(§2) Goosegrass was not evaluated 16 or 91 days after application."}, "Surinam grass (BRADC)": {"system": "Surinam grass (BRADC)", "assay": "Test 11 field trial, preemergence", "assay_type": "in vivo, Brachiaria decumbens", "set-up": "scale not given here", "settings": "alone or + atrazine 1500 or metolachlor 2500", "text": "as §1, §2"}, "velvetleaf (ABUTH)": {"system": "velvetleaf (ABUTH)", "assay": "Test 1 field trial, preemergence", "assay_type": "in vivo, Abutilon theophrasti", "set-up": "scale not given here", "settings": "g a.i./ha: Atrazine 1680, S-Metolachlor 1870", "text": "(§3) Corn seeds (hybrid ‘Pioneer 34N43’) were planted in mid spring season, 3.8 cm deep in a silt loam soil having 4.6% organic matter and a pH of 6. Plots were 10.7 m long by 1.5 m wide with rows spaced 76 cm apart. Seeds were spaced 18 cm apart within the rows. The field was managed using conventional tillage practices. […] Results are summarized in Table 1 and are the means of the three replicates. […] Colby's Equation (Colby, S. R. “Calculating Synergistic and Antagonistic Responses of Herbicide Combinations,” Weeds, 15(1), pp 20-22 (1967)) calculates the expected additive effect of herbicidal mixtures, and for two active ingredients is of the form:\n(§4) Pa+b=Pa+Pb−(PaPb/100) • wherein Pa+b is the percentage effect of the mixture expected from additive contribution of the individual components, • Pa is the observed percentage effect of the first active ingredient at the same use rate as in the mixture, and • Pb is the observed percentage effect of the second active ingredient at the same use rate as in the mixture."}, "[1]": {"system": "common lambsquarters (CHEAL)", "assay": "Test 1 field trial, preemergence", "assay_type": "in vivo, Chenopodium album", "settings": "g a.i./ha: Atrazine 1680, S-Metolachlor 1870", "text": "as §3, §4"}, "[2]": {"system": "Pennsylvania smartweed (POLPY)", "assay": "Test 1 field trial, preemergence", "assay_type": "in vivo, Polygonum pensylvanicum", "settings": "g a.i./ha: Atrazine 1680, S-Metolachlor 1870", "text": "as §3, §4"}, "[3]": {"system": "common lambsquarters (CHEAL)", "assay": "Test 8 field trial, preemergence", "assay_type": "in vivo, Chenopodium album", "settings": "g a.i./ha: Cpd 2 100, Atrazine 1680, S-Metolachlor 1870", "text": "(§5) Corn seeds (hybrid ‘Pioneer 31G96’) were planted in mid spring season, 3.8 cm deep in a clay loam soil having 2% organic matter and a pH of 6.6. Plots were 6.1 m long by 3.0 m wide with rows spaced 76 cm apart. Seeds were spaced 15 cm apart within the rows. The field was managed using conventional tillage practices. […] A few of the weed species could not be evaluated at every timing. […] Results are the means of the three replicates."}, "[4]": {"system": "ivyleaf morningglory (IPOHE)", "assay": "Test 8 field trial, preemergence", "assay_type": "in vivo, Ipomoea hederacea", "settings": "g a.i./ha: Cpd 2 100, Atrazine 1680, S-Metolachlor 1870", "text": "as §5"}, "common ragweed (AMBEL)": {"system": "common ragweed (AMBEL)", "assay": "Test 10 field trial, preemergence", "assay_type": "in vivo, Ambrosia artemisiifolia", "settings": "28 DAA; g a.i./ha: Cpd 2 100, Atrazine 1680, S-Metolachlor 1870", "text": "Corn seeds (hybrid ‘Pioneer 33P65 RR’) were planted in mid spring season, 2.5 cm deep in a silt loam soil. Plots were 9.1 m long by 3.0 m wide with rows spaced 76 cm apart. The field was managed using conventional tillage practices. […] Results are the means of the three replicates."}, "[5]": {"settings": "16 DAA, Cpd 2/Cpd 1 at 62 g a.i./ha"}, "[6]": {"settings": "16 DAA, Cpd 2/Cpd 1 at 125 g a.i./ha"}, "[7]": {"settings": "30 DAA, Cpd 2/Cpd 1 at 62 g a.i./ha"}, "[8]": {"settings": "30 DAA, Cpd 2/Cpd 1 at 125 g a.i./ha"}, "[9]": {"settings": "44 DAA, Cpd 2/Cpd 1 at 62 g a.i./ha"}, "[10]": {"settings": "44 DAA, Cpd 2/Cpd 1 at 125 g a.i./ha"}, "[11]": {"settings": "62 DAA, Cpd 2/Cpd 1 at 62 g a.i./ha"}, "[12]": {"settings": "62 DAA, Cpd 2/Cpd 1 at 125 g a.i./ha"}, "[13]": {"settings": "91 DAA, Cpd 2/Cpd 1 at 62 g a.i./ha"}, "[14]": {"settings": "91 DAA, Cpd 2/Cpd 1 at 125 g a.i./ha"}},
  "data": [
    {"compound": "Nc1nc(C2CC2)nc(C(=O)O)c1Cl", "note": "[Compound 1, 6-amino-5-chloro-2-cyclopropyl-4-pyrimidinecarboxylic acid]", "values": [
      {"measurement": "BIDPI Obs", "setting": "common blackjack (BIDPI); [5]", "value": 60},
      {"measurement": "BIDPI Obs", "setting": "common blackjack (BIDPI); [6]", "value": 80},
      {"measurement": "BIDPI Obs", "setting": "common blackjack (BIDPI); [7]", "value": 60},
      {"measurement": "BIDPI Obs", "setting": "common blackjack (BIDPI); [8]", "value": 80},
      {"measurement": "BIDPI Obs", "setting": "common blackjack (BIDPI); [9]", "value": 40},
      {"measurement": "BIDPI Obs", "setting": "common blackjack (BIDPI); [10]", "value": 80},
      {"measurement": "BIDPI Obs", "setting": "common blackjack (BIDPI); [11]", "value": 40},
      {"measurement": "BIDPI Obs", "setting": "common blackjack (BIDPI); [12]", "value": 60},
      {"measurement": "BIDPI Obs", "setting": "common blackjack (BIDPI); [13]", "value": 0},
      {"measurement": "BIDPI Obs", "setting": "common blackjack (BIDPI); [14]", "value": 70},
      {"measurement": "BRADC Obs", "setting": "Surinam grass (BRADC); [5]", "value": 20},
      {"measurement": "BRADC Obs", "setting": "Surinam grass (BRADC); [6]", "value": 40},
      {"measurement": "BRADC Obs", "setting": "Surinam grass (BRADC); [7]", "value": 20},
      {"measurement": "BRADC Obs", "setting": "Surinam grass (BRADC); [8]", "value": 50},
      {"measurement": "BRADC Obs", "setting": "Surinam grass (BRADC); [9]", "value": 0},
      {"measurement": "BRADC Obs", "setting": "Surinam grass (BRADC); [10]", "value": 40},
      {"measurement": "BRADC Obs", "setting": "Surinam grass (BRADC); [11]", "value": 0},
      {"measurement": "BRADC Obs", "setting": "Surinam grass (BRADC); [12]", "value": 0},
      {"measurement": "BRADC Obs", "setting": "Surinam grass (BRADC); [13]", "value": 0},
      {"measurement": "BRADC Obs", "setting": "Surinam grass (BRADC); [14]", "value": 0}
    ]},
    {"compound": "CCc1cccc(C)c1N(C(=O)CCl)[C@@H](C)COC", "note": "[S-Metolachlor, S-metolachlor, reference compound]", "values": [
      {"measurement": "ABUTH Obs", "setting": "velvetleaf (ABUTH); 28 DAA", "value": 33},
      {"measurement": "ABUTH Obs", "setting": "velvetleaf (ABUTH); 56 DAA", "value": 0},
      {"measurement": "CHEAL Obs", "setting": "[1]; 28 DAA", "value": 95},
      {"measurement": "CHEAL Obs", "setting": "[1]; 56 DAA", "value": 23},
      {"measurement": "POLPY Obs", "setting": "[2]; 28 DAA", "value": 57},
      {"measurement": "POLPY Obs", "setting": "[2]; 56 DAA", "value": 20},
      {"measurement": "CHEAL Obs", "setting": "[3]; 19 DAA", "value": 45, "unit": "%"},
      {"measurement": "CHEAL Obs", "setting": "[3]; 56 DAA", "value": 23, "unit": "%"},
      {"measurement": "IPOHE Obs", "setting": "[4]; 19 DAA", "value": 10, "unit": "%"},
      {"measurement": "IPOHE Obs", "setting": "[4]; 29 DAA", "value": 25, "unit": "%"},
      {"measurement": "IPOHE Obs", "setting": "[4]; 56 DAA", "value": 3, "unit": "%"},
      {"measurement": "AMBEL Obs", "setting": "common ragweed (AMBEL)", "value": 20, "unit": "%"}
    ]}
  ]
}
